Results from the NIST ThermoML archive (doi:10.1021/je049973v).

Settings: Liquid; for speed of sound: Pulse-echo method; for mass density: Vibrating tube method

CCCCCCCCCCCCCCCCCCc1ccccc1 [octadecylbenzene]
Settings	mass density [kg/m3]	speed of sound [m/s]
313.15 K, 100 kPa	840.55	1392.9
313.15 K, 5000 kPa	843.37	–
313.15 K, 10000 kPa	846.27	1439.6
313.15 K, 15000 kPa	849.15	–
313.15 K, 20000 kPa	–	1484.1
313.15 K, 25000 kPa	854.46	–
313.15 K, 30000 kPa	856.89	1525.8
313.15 K, 35000 kPa	859.36	–
313.15 K, 40000 kPa	861.48	1564.8
313.15 K, 45000 kPa	864.12	–
313.15 K, 50000 kPa	866.37	1602.4
313.15 K, 55000 kPa	868.59	–
313.15 K, 60000 kPa	870.16	1638.1
313.15 K, 70000 kPa	–	1672.1
313.15 K, 80000 kPa	–	1704.7
323.15 K, 100 kPa	833.94	1357.8
323.15 K, 5000 kPa	836.91	–
323.15 K, 10000 kPa	840.02	1406.8
323.15 K, 15000 kPa	842.88	–
323.15 K, 20000 kPa	–	1452.4
323.15 K, 25000 kPa	848.32	–
323.15 K, 30000 kPa	850.96	1495.5
323.15 K, 35000 kPa	853.46	–
323.15 K, 40000 kPa	856	1535.6
323.15 K, 45000 kPa	858.41	–
323.15 K, 50000 kPa	860.91	1574
323.15 K, 55000 kPa	863.12	–
323.15 K, 60000 kPa	865.36	1610.3
323.15 K, 70000 kPa	–	1645.1
323.15 K, 80000 kPa	–	1678.7
323.15 K, 90000 kPa	–	1710.4
323.15 K, 100000 kPa	–	1741.3
323.15 K, 110000 kPa	–	1771.2
323.15 K, 120000 kPa	–	1799.2
333.15 K, 100 kPa	827.32	1325.5
333.15 K, 5000 kPa	830.4	–
333.15 K, 10000 kPa	833.56	1374.8
333.15 K, 15000 kPa	836.59	–
333.15 K, 20000 kPa	–	1422.6
333.15 K, 25000 kPa	842.3	–
333.15 K, 30000 kPa	845.04	1466.1
333.15 K, 35000 kPa	847.71	–
333.15 K, 40000 kPa	850.3	1507.5
333.15 K, 45000 kPa	852.76	–
333.15 K, 50000 kPa	855.26	1546.7
333.15 K, 55000 kPa	857.46	–
333.15 K, 60000 kPa	859.86	1583.5
333.15 K, 70000 kPa	–	1619.1
333.15 K, 80000 kPa	–	1652.8
333.15 K, 90000 kPa	–	1685.7
333.15 K, 100000 kPa	–	1717
333.15 K, 110000 kPa	–	1747.3
333.15 K, 120000 kPa	–	1775.7
333.15 K, 130000 kPa	–	1803.9
333.15 K, 140000 kPa	–	1830.9
333.15 K, 150000 kPa	–	1857.5
343.15 K, 100 kPa	820.78	1292.7
343.15 K, 5000 kPa	824.1	–
343.15 K, 10000 kPa	827.33	1344.1
343.15 K, 15000 kPa	830.48	–
343.15 K, 20000 kPa	–	1392.8
343.15 K, 25000 kPa	836.54	–
343.15 K, 30000 kPa	839.35	1437.7
343.15 K, 35000 kPa	841.97	–
343.15 K, 40000 kPa	844.62	1480.2
343.15 K, 45000 kPa	847.32	–
343.15 K, 50000 kPa	849.82	1519.9
343.15 K, 55000 kPa	852.25	–
343.15 K, 60000 kPa	854.6	1558.1
343.15 K, 70000 kPa	–	1594.2
343.15 K, 80000 kPa	–	1628.6
343.15 K, 90000 kPa	–	1661.5
343.15 K, 100000 kPa	–	1693.1
343.15 K, 110000 kPa	–	1723.6
343.15 K, 120000 kPa	–	1753.5
343.15 K, 130000 kPa	–	1781.9
343.15 K, 140000 kPa	–	1809.4
343.15 K, 150000 kPa	–	1836.3
353.15 K, 100 kPa	814.1	1260.7
353.15 K, 5000 kPa	817.72	–
353.15 K, 10000 kPa	821.14	1313.4
353.15 K, 15000 kPa	824.47	–
353.15 K, 20000 kPa	–	1364.1
353.15 K, 25000 kPa	830.64	–
353.15 K, 30000 kPa	833.58	1410
353.15 K, 35000 kPa	836.52	–
353.15 K, 40000 kPa	839.12	1454
353.15 K, 45000 kPa	841.72	–
353.15 K, 50000 kPa	844.35	1494.4
353.15 K, 55000 kPa	846.91	–
353.15 K, 60000 kPa	849.39	1532.6
353.15 K, 70000 kPa	–	1569.2
353.15 K, 80000 kPa	–	1604.3
353.15 K, 90000 kPa	–	1638.2
353.15 K, 100000 kPa	–	1670.3
353.15 K, 110000 kPa	–	1701.4
353.15 K, 120000 kPa	–	1731.3
353.15 K, 130000 kPa	–	1759.9
353.15 K, 140000 kPa	–	1788.8
353.15 K, 150000 kPa	–	1815.1
363.15 K, 100 kPa	807.7	1229.5
363.15 K, 5000 kPa	811.19	–
363.15 K, 10000 kPa	814.87	1284.8
363.15 K, 15000 kPa	818.14	–
363.15 K, 20000 kPa	–	1334.9
363.15 K, 25000 kPa	824.7	–
363.15 K, 30000 kPa	827.83	1382.7
363.15 K, 35000 kPa	830.62	–
363.15 K, 40000 kPa	833.38	1427.1
363.15 K, 45000 kPa	836.17	–
363.15 K, 50000 kPa	838.78	1469.1
363.15 K, 55000 kPa	841.42	–
363.15 K, 60000 kPa	843.92	1508.3
363.15 K, 70000 kPa	–	1545.7
363.15 K, 80000 kPa	–	1581.7
363.15 K, 90000 kPa	–	1615.7
363.15 K, 100000 kPa	–	1648.3
363.15 K, 110000 kPa	–	1679.8
363.15 K, 120000 kPa	–	1710
363.15 K, 130000 kPa	–	1739.2
363.15 K, 140000 kPa	–	1767.5
363.15 K, 150000 kPa	–	1795.5
373.15 K, 100 kPa	800.89	1198.7
373.15 K, 5000 kPa	804.86	–
373.15 K, 10000 kPa	808.59	1255.2
373.15 K, 15000 kPa	812.16	–
373.15 K, 20000 kPa	–	1308.3
373.15 K, 25000 kPa	818.84	–
373.15 K, 30000 kPa	821.97	1356.6
373.15 K, 35000 kPa	825.09	–
373.15 K, 40000 kPa	828	1401.7
373.15 K, 45000 kPa	830.8	–
373.15 K, 50000 kPa	833.6	1444.5
373.15 K, 55000 kPa	836.29	–
373.15 K, 60000 kPa	838.88	1484.7
373.15 K, 70000 kPa	–	1522
373.15 K, 80000 kPa	–	1558.6
373.15 K, 90000 kPa	–	1592.9
373.15 K, 100000 kPa	–	1626.3
373.15 K, 110000 kPa	–	1657.9
373.15 K, 120000 kPa	–	1688.5
373.15 K, 130000 kPa	–	1718.7
373.15 K, 140000 kPa	–	1746.6
373.15 K, 150000 kPa	–	1774.6
